Source: patent publication EP0520604A2, “Monoclonal antibody against pentacyclic oleanan-type triterpene and use thereof” (MINOPHAGEN PHARMACEUTICAL COMPANY, priority 1991, dated 1992)

How the values were obtained:
Experiment in all cases: Inhibition ELISA (cross reactivity), solidified GA-BSA conjugate as antigen
Assay type in all cases: binding, mouse
[1] = test system: monoclonal antibody produced by a strain GA2-20-3; details: for 50 % inhibition concentration (IC 50): monoclonal antibody 2-20-3, 50-fold diluted, from inhibition curves; for cross reactivity: monoclonal antibody 2-20-3, values in parenthesis, relative to (GA)
Experimental: (§1) Inhibition ELISA comprises sequentially incubating the solidified GA-BSA conjugate with glycyrrhetic acid or a sample together with the antibody, bonding the enzyme-labeled anti-mouse IgG to the resulting incubation mixture, thereby measuring the enzyme activity. The antibody bonded to the antigen contained in the sample cannot be bonded to the solidified antigen, and therefore, the amount of the enzyme bonded is reduced. By measuring the enzyme activity, glycyrrhetic acid contained in the sample can be measured. The amount of glycyrrhizin can be determined by measuring glycyrrhetic acid generated by the acid hydrolysis of glycyrrhizin.
(§2) According to direct ELISA, the antibody solution is divided into each well; according to inhibition ELISA, glycyrrhetic acid or a sample solution is divided into each well together with the antibody solution. After left to stand at ambient temperature, the wells are washed before the division of an enzyme-labeled anti-mouse IgG solution, and then the wells are left to stand at ambient temperature.
(§3) After washing each well again, a solution of a dye which develops color on enzyme reaction is divided into the washed wells for reaction. After the completion of the reaction, the absorbance of each well at 405 nm is measured with an immunoreader. By comparing the results with the values obtained from known amounts of the antigen, glycyrrhetic acid can be assayed.
(§4) The cross reactivity to the following individual compounds was examined according to inhibition ELISA. • (1) 18α H-Olean-11-oxo-12ene-30-oic acid • (2) Olean-12ene-3,11-dioxo-30-oic acid • (3) Olean-12ene-3α-hydroxy-11-oxo-30-oic- acid • (4) Olean-12ene-11-oxo-3β, 30-diol • (5) Cholic acid • (6) Deoxy cholic acid • (7) Glycyrrhetlc acid (GA) • (8) Glycyrrhizin (GL) These are illustrated as compounds (1), (2), (3), (4), (5), (6), (GA) and (GL).
(§5) One hundred µℓ each of the GA-BSA solution (10 µg/mℓ) was divided in the wells of a 96-well microtiter plate and left to stand overnight at 4° C. After removing the antigen solution, 100 µℓ each of the BSA-PBS was divided and left to stand at 37° C for one hour.
(§6) The 50-fold diluted antibody and each of the compounds were individually adjusted to 10 ng/mℓ, 100 ng/mℓ and 1000 ng/mℓ. Fifty µℓ each of the adjusted solution was divided in each well. After left to stand at ambient temperature for 30 minutes, the wells were washed three times with the PBS containing 0.05 % Tween 20, and washed twice with PBS, followed by the division of the 5000-fold dilution of goat anti-mouse IgG labeled with alkaline phosphatase, and left to stand at room temperature for 30 minutes.
(§7) After each well was washed following the same procedure described above, 100 µℓ each of 1M diethanolamine buffer (pH 9.8) containing p-nitrophenyl phosphate at a concentration of 1 mg/mℓ was divided and reacted at 37° C for 30 minutes. After the completion of the reaction, 2M sodium hydroxide was added. Then, the absorbance at 405 nm of each well was measured with an immunoreader.
(§8) From the inhibition curves obtained, 50 % inhibition concentration (IC 50) of each compound was determined. The antibody generated by the strain GA2-20-1, among the three strains, had the highest specificity.

[2] = test system: monoclonal antibody produced by a strain GA2-20-1; details: for 50 % inhibition concentration (IC 50): monoclonal antibody 2-20-1, 50-fold diluted, from inhibition curves; for cross reactivity: monoclonal antibody 2-20-1, values in parenthesis, relative to (GA)
Experimental: as §1, §2, §3, §4, §5, §6, §7, §8

[3] = test system: monoclonal antibody produced by a strain GA2-20-6; details: for 50 % inhibition concentration (IC 50): monoclonal antibody 2-20-6, 50-fold diluted, from inhibition curves; for cross reactivity: monoclonal antibody 2-20-6, values in parenthesis, relative to (GA)
Experimental: as §1, §2, §3, §4, §5, §6, §7, §8

Row | 50 % inhibition concentration (IC 50) [1] [µg/mL] | 50 % inhibition concentration (IC 50) [2] [µg/mL] | 50 % inhibition concentration (IC 50) [3] [µg/mL] | Molecule | cross reactivity [1] | cross reactivity [2] | cross reactivity [3]
1 | 0.0878 | 0.0876 | 0.0975 | 18α H-Olean-11-oxo-12ene-30-oic acid [compound (1)] | (37.5) % | (18.2) % | (45.5) %
2 | 0.6765 | 0.6954 | 0.7933 | CC1(C)[C@H](O)CC[C@]2(C)[C@H]3C(=O)C=C4[C@@H]5C[C@@](C)(C(=O)O)CC[C@]5(C)CC[C@@]4(C)[C@]3(C)CC[C@@H]12 [(3), Olean-12ene-3α-hydroxy-11-oxo-30-oic-acid] | ( 4.9) % | ( 2.3) % | ( 5.6) %
3 | >1 | >1 | >1 | CC1(C)[C@@H](O[C@H]2O[C@H](C(=O)O)[C@@H](O)[C@H](O)[C@H]2O[C@@H]2O[C@H](C(=O)O)[C@@H](O)[C@H](O)[C@H]2O)CC[C@]2(C)[C@H]3C(=O)C=C4[C@@H]5C[C@@](C)(C(=O)O)CC[C@]5(C)CC[C@@]4(C)[C@]3(C)CC[C@@H]12 [(GL), Glycyrrhizin] | (<1.6) % | (<1.6) % | (<1.6) %
4 | 0.0329 | 0.0159 | 0.0444 | Glycyrrhetlc acid [(GA)] | – | – | –

Row | Molecule | 50 % inhibition concentration (IC 50) [1] [µg/mL] | 50 % inhibition concentration (IC 50) [2] [µg/mL] | 50 % inhibition concentration (IC 50) [3] [µg/mL] | cross reactivity [1] | cross reactivity [2] | cross reactivity [3]
5 | CC1(C)C(=O)CC[C@]2(C)[C@H]3C(=O)C=C4[C@@H]5C[C@@](C)(C(=O)O)CC[C@]5(C)CC[C@@]4(C)[C@]3(C)CC[C@@H]12 [(2), Olean-12ene-3,11-dioxo-30-oic acid] | 0.9571 | 0.8317 | >1 | ( 3.4) % | ( 1.9) % | (<1.6) %
6 | CC1(C)[C@@H](O)CC[C@]2(C)[C@H]3C(=O)C=C4[C@@H]5C[C@@](C)(CO)CC[C@]5(C)CC[C@@]4(C)[C@]3(C)CC[C@@H]12 [(4), Olean-12ene-11-oxo-3β, 30-diol] | 0.4767 | 0.4372 | 0.4254 | ( 6.9) % | ( 3.6) % | (10.4) %
7 | C[C@H](CCC(=O)O)[C@H]1CC[C@H]2[C@@H]3[C@H](O)C[C@@H]4C[C@H](O)CC[C@]4(C)[C@H]3C[C@H](O)[C@]12C [compound (5), Cholic acid] | >1 | >1 | >1 | (<1.6) % | (<1.6) % | (<1.6) %
